# Results published in ChEMBL document CHEMBL4622850, “Discovery and optimization of new oxadiazole substituted thiazole RORγt inverse agonists through a bioisosteric amide replacement approach” (Bioorg Med Chem Lett, 2020).
# Key:
# [1] = Solubility of compound by pH 2; format: physicochemical; details: buffer
# [2] = Solubility of compound by pH 7; format: physicochemical; details: buffer
# [3] = Cmax in rat at 5 mg/kg, po; format: ADME, organism-based; set-up: dose 5 mg/kg, route oral; details: in vivo
# [4] = AUC in rat at 5 mg/kg, po; format: ADME, organism-based; details: in vivo
# [5] = Oral bioavailability in rat at 1 mg/kg; format: ADME, organism-based; details: in vivo
# [6] = biological target: Cytochrome P450 2C19 (Homo sapiens, UniProt P33261); assay: Inhibition of CYP2C19 (unknown origin); format: ADME
# Chain of Cytochrome P450 2C19 (P33261 whole entry): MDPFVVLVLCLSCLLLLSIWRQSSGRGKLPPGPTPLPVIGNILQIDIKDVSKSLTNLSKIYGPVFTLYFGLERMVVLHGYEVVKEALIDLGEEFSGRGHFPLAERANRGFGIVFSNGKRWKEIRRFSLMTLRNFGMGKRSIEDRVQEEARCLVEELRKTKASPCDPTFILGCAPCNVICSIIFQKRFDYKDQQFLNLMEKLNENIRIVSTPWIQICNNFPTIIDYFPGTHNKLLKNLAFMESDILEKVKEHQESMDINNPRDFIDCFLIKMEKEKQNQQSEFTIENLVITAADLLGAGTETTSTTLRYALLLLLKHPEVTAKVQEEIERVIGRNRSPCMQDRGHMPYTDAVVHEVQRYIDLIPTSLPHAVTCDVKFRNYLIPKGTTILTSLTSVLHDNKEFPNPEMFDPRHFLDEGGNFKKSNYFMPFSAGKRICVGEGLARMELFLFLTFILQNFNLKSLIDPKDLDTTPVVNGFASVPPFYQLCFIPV
# [7] = biological target: T1, Nuclear receptor subfamily 1 group I member 2 (Homo sapiens, UniProt O75469); assay: Activation of PXR (unknown origin) at 5 uM; format: ADME
# T1 sequence (O75469 whole entry): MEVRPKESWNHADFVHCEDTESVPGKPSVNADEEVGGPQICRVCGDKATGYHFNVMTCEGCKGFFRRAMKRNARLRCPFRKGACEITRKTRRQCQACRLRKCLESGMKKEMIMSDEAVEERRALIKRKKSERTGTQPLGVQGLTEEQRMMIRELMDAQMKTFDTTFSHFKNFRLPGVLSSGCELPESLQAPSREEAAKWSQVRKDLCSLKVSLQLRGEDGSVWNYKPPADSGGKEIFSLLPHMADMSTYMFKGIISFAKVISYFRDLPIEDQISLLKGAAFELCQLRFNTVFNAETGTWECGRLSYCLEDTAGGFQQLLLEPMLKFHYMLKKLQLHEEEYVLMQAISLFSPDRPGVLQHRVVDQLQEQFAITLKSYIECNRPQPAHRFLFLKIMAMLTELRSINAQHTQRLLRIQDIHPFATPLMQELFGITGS
# [8] = Metabolic stability in rat liver microsomes assessed as half life; format: ADME, Microsome
# [9] = biological target: T2, Nuclear receptor ROR-gamma (Mus musculus, UniProt P51450); assay: Inverse agonist activity at RORgammat in mouse whole blood assessed as reduction in IL-17a production; format: tissue-based
# T2 sequence (P51450 whole entry): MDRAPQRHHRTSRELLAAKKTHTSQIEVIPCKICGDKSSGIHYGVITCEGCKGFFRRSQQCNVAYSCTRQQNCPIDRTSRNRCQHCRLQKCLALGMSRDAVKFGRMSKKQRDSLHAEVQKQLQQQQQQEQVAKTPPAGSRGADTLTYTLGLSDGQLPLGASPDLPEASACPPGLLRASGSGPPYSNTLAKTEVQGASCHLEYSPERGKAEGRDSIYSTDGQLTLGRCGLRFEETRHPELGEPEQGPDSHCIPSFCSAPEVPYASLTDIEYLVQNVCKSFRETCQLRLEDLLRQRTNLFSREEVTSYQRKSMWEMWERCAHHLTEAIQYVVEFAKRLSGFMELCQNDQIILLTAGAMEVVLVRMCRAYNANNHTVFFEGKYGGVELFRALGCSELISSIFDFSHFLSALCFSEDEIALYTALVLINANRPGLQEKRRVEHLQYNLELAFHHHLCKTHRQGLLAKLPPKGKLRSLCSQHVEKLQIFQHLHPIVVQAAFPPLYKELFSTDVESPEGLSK
# [10] = biological target: T3, Nuclear receptor ROR-beta (Homo sapiens, UniProt Q92753); assay: Binding affinity to RORbeta (unknown origin) assessed as dissociation constant by thermal shift binding assay
# T3 sequence (Q92753 whole entry): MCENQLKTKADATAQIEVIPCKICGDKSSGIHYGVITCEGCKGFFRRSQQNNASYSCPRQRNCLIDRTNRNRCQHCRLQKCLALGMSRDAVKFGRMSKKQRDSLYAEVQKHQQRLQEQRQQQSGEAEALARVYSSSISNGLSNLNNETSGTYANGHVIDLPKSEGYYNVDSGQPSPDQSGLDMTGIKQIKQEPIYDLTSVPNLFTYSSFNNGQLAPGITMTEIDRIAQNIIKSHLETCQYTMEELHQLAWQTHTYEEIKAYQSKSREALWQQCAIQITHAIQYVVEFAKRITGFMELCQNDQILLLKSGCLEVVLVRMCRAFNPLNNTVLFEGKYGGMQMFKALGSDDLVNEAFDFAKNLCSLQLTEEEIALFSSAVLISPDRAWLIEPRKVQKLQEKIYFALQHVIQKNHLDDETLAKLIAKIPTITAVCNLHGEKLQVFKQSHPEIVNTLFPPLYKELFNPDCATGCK
# [11] = Volume of distribution in rat at 1 mg/kg, iv; format: ADME, organism-based; details: in vivo
# [12] = Clearance in rat at 1 mg/kg, iv; format: ADME, organism-based; details: in vivo
# [13] = Half life in rat at 1 mg/kg, iv; format: ADME, organism-based; details: in vivo
# [14] = biological target: Cytochrome P450 2C9 (Homo sapiens, UniProt P11712); assay: Inhibition of CYP2C9 (unknown origin); format: ADME
# Chain of Cytochrome P450 2C9 (P11712 whole entry): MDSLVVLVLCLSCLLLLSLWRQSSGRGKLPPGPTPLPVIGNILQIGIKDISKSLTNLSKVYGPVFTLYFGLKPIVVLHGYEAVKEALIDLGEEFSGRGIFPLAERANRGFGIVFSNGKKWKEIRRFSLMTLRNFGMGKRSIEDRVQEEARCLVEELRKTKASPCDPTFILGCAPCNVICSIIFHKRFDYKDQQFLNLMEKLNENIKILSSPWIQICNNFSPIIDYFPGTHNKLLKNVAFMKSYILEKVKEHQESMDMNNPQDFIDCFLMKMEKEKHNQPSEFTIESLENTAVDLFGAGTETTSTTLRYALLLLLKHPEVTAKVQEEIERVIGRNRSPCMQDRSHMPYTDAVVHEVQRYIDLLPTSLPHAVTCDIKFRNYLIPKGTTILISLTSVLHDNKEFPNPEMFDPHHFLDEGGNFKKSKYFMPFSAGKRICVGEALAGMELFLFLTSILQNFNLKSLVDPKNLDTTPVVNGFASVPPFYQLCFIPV
solubility [1] [µM],solubility [2] [µM],IC50 [9] [nM],SMILES,also measured
< 4,118,–,C[C@H](NS(=O)(=O)c1ccc(-c2sc(-c3nnc([C@H]4C[C@H](C(=O)O)C4)o3)nc2CC2CCC2)c(Cl)c1Cl)C(F)(F)F,–
< 4,268,1870,C[C@H](NS(=O)(=O)c1ccc(-c2sc(CC(C)(C)C(=O)O)nc2CC2CCC2)c(Cl)c1Cl)C(F)(F)F,Activity [7]: 33%
< 4,< 4,–,C[C@H](NS(=O)(=O)c1ccc(-c2sc(-c3cc(CC(C)(C)C(=O)O)on3)nc2CC2CCC2)c(Cl)c1Cl)C(F)(F)F,–
< 4,< 4,1540,CC[C@H](NS(=O)(=O)c1ccc(-c2sc(-c3nnc(CC(C)(C)C(=O)O)o3)nc2CC2CCCCC2)c(C(F)F)c1F)C(F)(F)F,–
< 4,24,–,C[C@H](NS(=O)(=O)c1ccc(-c2sc(-c3nnc(CC(C)(C)C(=O)O)o3)nc2CC2CCC2)c2ccccc12)C(F)(F)F,Vd [11]: 1.1 L/kg; Cmax [3]: 2300 nM; half-life [8]: > 3 h; AUC [4]: 13100 ng·h/mL; clearance [12]: 6 mL/min/kg; bioavailability [5]: 96%; half-life [13]: 3.1 h
< 4,69,230,CC[C@H](NS(=O)(=O)c1ccc(-c2sc(-c3nnc(CC(C)(C)C(=O)O)o3)nc2CC2CCCC2)c(C(F)F)c1F)C(F)(F)F,–
< 4,178,–,CC[C@H](NS(=O)(=O)c1ccc(-c2sc(CC(C)(C)C(=O)O)nc2CC2CCC2)c(Cl)c1Cl)C(F)(F)F,Activity [7]: 40%
< 4,< 4,–,C[C@H](NS(=O)(=O)c1ccc(-c2sc(-c3cnc(CC(C)(C)C(=O)O)s3)nc2CC2CCC2)c(Cl)c1Cl)C(F)(F)F,–
9.7,6.4,–,C[C@H](NS(=O)(=O)c1ccc(-c2sc(-c3noc(C(C)(C)O)n3)nc2C(=O)N2CCC(F)CC2)c(Cl)c1Cl)C(F)(F)F,Kd [10]: > 91000 nM
< 4,38,790,C[C@H](NS(=O)(=O)c1ccc(-c2sc(-c3noc(CC(C)(C)C(=O)O)n3)nc2CC2CCC2)c(Cl)c1Cl)C(F)(F)F,–

# Continued, compound first:
SMILES,solubility [1] [µM],solubility [2] [µM],IC50 [9] [nM],also measured
CC(C)(C)NS(=O)(=O)c1ccc(-c2sc(C(=O)N[C@H]3C[C@H](C(=O)O)C3)nc2CC2CCCCC2)c2ccccc12,< 1,< 1,–,Cmax [3]: 220 nM; AUC [4]: 302 ng·h/mL; bioavailability [5]: 20%
CC(C)(C)NS(=O)(=O)c1ccc(-c2sc(-c3nnc(C(C)(C)O)o3)nc2CC2CCCCC2)c2ccccc12,< 1,< 1,–,–
C[C@H](NS(=O)(=O)c1ccc(-c2sc(-c3cc(CC(C)(C)C(=O)O)ncn3)nc2CC2CCC2)c(Cl)c1Cl)C(F)(F)F,–,–,–,IC50 [6]: 790 nM
CC[C@H](NS(=O)(=O)c1ccc(-c2sc(CC(C)(C)C(=O)O)nc2CC2CCC2)c(Cl)c1)C(F)(F)F,–,–,–,Activity [7]: 2%
C[C@H](NS(=O)(=O)c1ccc(-c2sc(C(=O)NCC(C)(C)O)nc2CC2CCC2)c(Cl)c1Cl)C(F)(F)F,–,–,–,half-life [8]: 0.617 h
C[C@H](NS(=O)(=O)c1ccc(-c2sc(-c3nnc(CC(C)(C)C(=O)O)o3)nc2C(=O)N2CCCC[C@@H]2C)c(C(F)F)c1F)C(F)(F)F,< 4,398,–,–
C[C@H](NS(=O)(=O)c1ccc(-c2sc(-c3nnc(C(C)(C)O)o3)nc2C(=O)N2CCC(F)CC2)c(Cl)c1Cl)C(F)(F)F,–,165,–,Kd [10]: > 50000 nM
CC(C)(O)CNC(=O)c1nc(CC2CCCCC2)c(-c2ccc(S(=O)(=O)NC(C)(C)C)c3ccccc23)s1,< 4,< 4,–,–
C[C@H](NS(=O)(=O)c1ccc(-c2sc(-c3nnc(CC(C)(C)C(=O)O)o3)nc2Cc2ccc(F)cc2)c(C(F)F)c1F)C(F)(F)F,< 4,57,–,–
COC(C)(C)Cc1nc(-c2nnc(CC(C)(C)C(=O)O)o2)sc1-c1ccc(S(=O)(=O)N[C@@H](C)C(F)(F)F)c(F)c1C(F)F,< 4,363,9000,–
CCN(CC)C(=O)c1nc(-c2nnc(C(C)(C)O)o2)sc1-c1ccc(S(=O)(=O)N[C@@H](C)C(F)(F)F)c(Cl)c1Cl,–,55,100,half-life [8]: 1.58 h; Kd [10]: > 60000 nM
C[C@H](NS(=O)(=O)c1ccc(-c2sc(CC(C)(C)C(=O)O)nc2CC2CCC2)c(C(F)(F)F)c1)C(F)(F)F,–,–,–,Activity [7]: 43%
C[C@H](NS(=O)(=O)c1ccc(-c2sc(-c3nnc(CC(C)(C)C(=O)O)s3)nc2CC2CCC2)c(Cl)c1Cl)C(F)(F)F,–,–,–,IC50 [14]: 900 nM
C[C@H](NS(=O)(=O)c1ccc(-c2sc(-c3nnc(CC(C)(C)C(=O)O)o3)nc2CN2CCCC(F)(F)C2)c(C(F)F)c1F)C(F)(F)F,54,182,448,–
CC[C@H](NS(=O)(=O)c1ccc(-c2sc(-c3nnc(CC(C)(C)O)o3)nc2C(=O)N2CCC(F)CC2)c(Cl)c1Cl)C(F)(F)F,41,99,120,–
